Source: patent US5688949A, “Pyrazolo[1,5-A]pyrimidine derivatives and anti-inflammatory agent containing the same” (Otsuka Pharmaceutical Factory, Inc., priority 1991, dated 1997)

Columns and labels:
cyclooxygenase [1] = molecular target: T1, cyclooxygenase (Ovis aries, UniProt P05979); assay: Cyclooxygenase inhibitory activity test 2 (fixed concentration, sheep seminal vesicle microsome); format: biochemical; conditions: same fixed concentration, 3×10^-7 M; PGE2 producing rate compared with control group
T1 construct: sheep seminal vesicle microsome, which is a crude enzyme solution; from tissue; host or cells: sheep seminal vesicle microsomes (crude enzyme solution)
T1 sequence (P05979 25-600): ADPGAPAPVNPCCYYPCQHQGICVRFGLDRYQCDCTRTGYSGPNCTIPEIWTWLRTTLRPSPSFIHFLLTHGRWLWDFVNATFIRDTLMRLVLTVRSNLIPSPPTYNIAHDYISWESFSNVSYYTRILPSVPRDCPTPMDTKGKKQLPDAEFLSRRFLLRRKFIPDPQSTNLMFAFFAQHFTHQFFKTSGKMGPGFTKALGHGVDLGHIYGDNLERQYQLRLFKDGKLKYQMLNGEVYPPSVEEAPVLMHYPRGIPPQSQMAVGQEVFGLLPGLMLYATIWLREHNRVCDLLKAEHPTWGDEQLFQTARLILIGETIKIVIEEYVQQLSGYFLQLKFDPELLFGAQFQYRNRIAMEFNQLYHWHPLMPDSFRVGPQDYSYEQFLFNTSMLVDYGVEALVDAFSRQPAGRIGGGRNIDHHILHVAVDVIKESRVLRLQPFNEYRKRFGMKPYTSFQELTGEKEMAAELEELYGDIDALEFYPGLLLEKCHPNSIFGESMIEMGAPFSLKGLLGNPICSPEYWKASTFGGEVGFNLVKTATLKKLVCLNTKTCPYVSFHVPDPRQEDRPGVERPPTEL
Method: The preparation of sheep seminal vesicle microsome, which is a crude enzyme solution, and the analysis of the cyclooxygenase activity were carried out according to the method of Miyamoto et al. as follows [cf.
(§1) That is, a test compound was added to a microsome solution, and the mixture was incubated at 24° C. for two minutes, and then, thereto was added a substrate, ^14 C-arachidonic acid. The mixture was further incubated for two minutes, and the reaction was quenched with a mixture of ether/methanol/0.2M citric acid (30:4:1), and extracted to collect a product produced by cyclooxygenase. The extract was spotted on a thin layer plate and the plate was developed. The fractions containing the arachidonic acid, prostaglandin E2 (PGE2) and the other parts were collected by scratching, respectively. Each part was measured with a scintillation counter, by which the cyclooxygenase activity therein was estimated.

cyclooxygenase [2] = molecular target: T1, cyclooxygenase; assay: Cyclooxygenase inhibitory activity test 1 (sheep seminal vesicle microsome, 14C-arachidonic acid); format: biochemical
Method: Cyclooxygenase inhibitory activity test 1:
The preparation of sheep seminal vesicle microsome, which is a crude enzyme solution, and the analysis of the cyclooxygenase activity were carried out according to the method of Miyamoto et al. as follows [cf. Proc. Natl. Acad. Sci., U.S.A., 71, 3645 (1974) and J. Biol. Chem., 251, 2629 (1976)].
as §1
The compounds prepared in Examples 2, 38, 44 and 46 were tested in the above experiment, and there were obtained the concentrations of the test compounds required to reduce the cyclooxygenase activity to 50% (cyclooxygenase inhibitory rate; IC50 value).

Row | inhibition at 0.3 µM (cyclooxygenase [1]) [%] | IC50 value relative to that of indomethacin ("times as high as that of indomethacin") (cyclooxygenase [2]; reference compound indomethacin) [times] | IC50 (cyclooxygenase [2]; sheep seminal vesicle microsome, 24° C., two minutes preincubation, two minutes with 14C-arachidonic acid, read-out: IC50 value (concentration required to reduce the cyclooxygenase activity to 50%)) [nM] | Compound
1 | 48.2 | – | – | CCCCc1cc(Nc2cc(C(C)(C)C)c(O)c(C(C)(C)C)c2)n2nccc2n1 [Example 38]
2 | 55.9 | – | – | CCc1cc(Nc2cc(C(C)(C)C)c(O)c(C(C)(C)C)c2)n2nccc2n1 [Example 44]
3 | 65 | 27.8 | 300 | Cc1cc(Nc2cc(C(C)(C)C)c(O)c(C(C)(C)C)c2)n2nccc2n1 [Example 2, 5-methyl-7-(3,5-di-t-butyl-4-hydroxyphenyl)aminopyrazolo[1,5-a]pyrimidine]
4 | 50.5 | – | – | CC(C)(C)c1cc(Nc2cc(C3CC3)nc3ccnn23)cc(C(C)(C)C)c1O [Example 46]
